# From paper PMC5430962, “Retro-inverso Urokinase Receptor Antagonists for the Treatment of Metastatic Sarcomas” (Scientific Reports, 2017)
# [ ]: non-standard residue; d: D form. Aib = CC(C)(N)C(=O)O
# Test: Stability in human serum, read out as retained inhibition of HT1080 matrigel invasion
# Type: in vitro ADME
# Conditions: pre-incubated at 10^−3 M in human serum 18 hr at 37 °C; tested at 10 nM on HT1080 matrigel invasion, Boyden chambers, 6 hr; three experiments in triplicate
# Description: A major limitation of peptides for use as therapeutics is susceptibility to degradation by serum proteases. The stability of RI-3 in bovine and human serum was investigated by comparing inhibitory activities of RI-3 and RI-3 pre-incubated at 10^−3 M with serum for 18 hr at 37 °C on cell migration and invasion. HT1080 cells were allowed to migrate for 18 hr toward DMEM (CTRL), 10% FBS (None), 10% FBS plus 10 nM RI-3 or 10% FBS with 10 nM RI-3 pre-incubated in bovine serum. […] The stability of RI-3 in human serum was investigated in cell invasion experiments performed in Boyden chambers. […]
# (a) HT1080 cells were allowed to migrate in real time for 18 hr toward DMEM (CTRL), or 10% FBS in the absence (None) or the presence of 10 nM RI-3 or 10 nM RI-3 pre-incubated at 10^−3 M in bovine serum for 18 hr at 37 °C. […] The basal value assessed in the absence of FBS (CTRL) was taken as 100% and all values were reported relative to that. Data are the means ± SD three independent experiments, performed in triplicate. *Indicates statistical significance calculated against None, with *P < 0.05, **P < 0.0001. (c) Cell proliferation of HT1080 cells assessed by MTS assay. […] At the indicated times, the absorbance of adherent cells was assessed with a microplate reader. […]
substance,measurement,value
Ac-[dY][dR][Aib][dR]-NH2 (SMILES CC(=O)N[C@H](Cc1ccc(O)cc1)C(=O)N[C@H](CCCNC(=N)N)C(=O)NC(C)(C)C(=O)N[C@H](CCCNC(=N)N)C(N)=O) [RI-3],inhibitory activity retained after pre-incubation with human serum,81%
